Like-named read-outs stand apart in the source and are kept apart here.
Tested on: HCV replicon RNA-containing Huh7 cells (clone A cells)
Assay: HCV replicon assay
Type: cell-based
Details: read-out: CloneA EC90
Description: HCV replicon assay. HCV replicon RNA-containing Huh7 cells (clone A cells; Apath, LLC, St. Louis, Mo.) were kept at exponential growth in Dulbecco's modified Eagle's medium (high glucose) containing 10% fetal bovine serum, 4 mM L-glutamine and 1 mM sodium pyruvate, 1×nonessential amino acids, and G418 (1,000 μg/m1). Antiviral assays were performed in the same medium without G418. Cells were seeded in a 96-well plate at 1,500 cells per well, and test compounds were added immediately after seeding. Incubation time 4 days. At the end of the incubation step, total cellular RNA was isolated (RNeasy 96 kit; Qiagen). Replicon RNA and an internal control (TaqMan rRNA control reagents; Applied Biosystems) were amplified in a single-step multiplex RT-PCR protocol as recommended by the manufacturer. The HCV primers and probe were designed with Primer Express software (Applied Biosystems) and covered highly conserved 5′-untranslated region (UTR) sequences (sense, 5′-AGCCATGGCGTTAGTA(T)GAGTGT-3′ (SEQ ID NO: 1), and antisense, 5′-TTCCGCAGACCACTATGG-3′ (SEQ ID NO: 2); probe, 5′-FAM-[…]-TAMRA-3′ SEQ ID NO: 3)).
To express the antiviral effectiveness of a compound, the threshold RT-PCR cycle of the test compound was subtracted from the average threshold RT-PCR cycle of the no-drug control (ΔCtHCV). A ΔCt of 3.3 equals a 1-log 10 reduction (equal to the 90% effective concentration [EC90]) in replicon RNA levels. The cytotoxicity of the test compound could also be expressed by calculating the ΔCtrRNA values. The ΔΔCt specificity parameter could then be introduced (ΔCtHCV−ΔCtrRNA) in which the levels of HCV RNA are normalized for the rRNA levels and calibrated against the no-drug control.

[1] = clone A Huh7 replicon cells, incubation time 4 days, replicon RNA by RT-PCR, ΔCt of 3.3 = 1-log 10 reduction = EC90

Row | SMILES | EC90 [1] | EC90 (Hepatitis C virus, Huh-7, 96 h) | further results
1 | COc1nc(N)nc2c1ncn2[C@@H]1O[C@@H]2CO[P@](=O)(OC3CCCC3)O[C@H]2[C@@]1(C)F [Compound 24, 6-Methoxy-9-((2R,4aR,6R,7R,7aR)-7-fluoro-2-cyclopentoxy-7-methyl-2-oxo-tetrahydro-2μ^5-furo[3,2-d][1,3,2]dioxaphosphinin-6-yl)-9H-purin-2-ylamine] | 37 nM |  | 
2 | COc1nc(N)nc2c1ncn2[C@@H]1O[C@H](COP(=O)(N[C@@H](C)C(=O)OC(C)C)Oc2ccccc2)[C@@H](O)[C@@]1(C)F (stereo partly drawn) [Compound 11, (2S)-isopropyl 2-((((2R,3R,4R,5R)-5-(2-amino-6-methoxy-9H-purin-9-yl)-4-fluoro-3-hydroxy-4-methyltetrahydrofuran-2-yl)methoxy) (phenoxy)phosphorylamino)propanoate] |  | 20 nM | 
3 | COc1nc(N)nc2c1ncn2[C@@H]1O[C@@H]2CO[P@](=O)(OC3CCC3)O[C@H]2[C@@]1(C)F [Compound 23, 6-Methoxy-9-((2R,4aR,6R,7R,7aR)-7-fluoro-2-cyclobutoxy-7-methyl-2-oxo-tetrahydro-2λ^5-furo[3,2-d][1,3,2]dioxaphosphinin-6-yl)-9H-purin-2-ylamine] |  |  | EC90 (Hepatitis C virus, Huh-7, 96 h, clone A Huh7 replicon cells, incubation time 4 days, replicon RNA by RT-PCR, ΔCt of 3.3 = 1-log 10 reduction = EC90): 130 nM
4 | C[C@H](NP(=O)(OC[C@H]1O[C@@H](n2cnc3c(O)nc(N)nc32)[C@](C)(F)[C@@H]1O)Oc1ccccc1)C(=O)OC1CCCC1 (stereo partly drawn) [Compound 14, (2S)-cyclopentyl 2-((((2R,3R,4R,5R)-5-(2-amino-6-hydroxy-9H-purin-9-yl)-4-fluoro-3-hydroxy-4-methyltetrahydrofuran-2-yl)methoxy)(phenoxy)phosphorylamino)propanoate] |  | 130 nM | 
5 | COP1(=O)OC[C@H]2O[C@@H](n3cnc4c(N5CCC5)nc(N)nc43)[C@](C)(F)[C@@H]2O1 (stereo partly drawn) [Compound 15, 6-Azetidin-1-yl-9-((4aR,6R,7R,7aR)-7-fluoro-2-methoxy-7-methyl-2-oxo-tetrahydrofuro[3,2-d][1,3,2]dioxaphosphinin-6-yl)-9H-purin-2-ylamine] |  | 710 nM | 
6 | COC(=O)[C@H](C)NP(=O)(OC[C@H]1O[C@@H](n2cnc3c(N4CCC4)nc(N)nc32)[C@](C)(F)[C@@H]1O)Oc1ccccc1 (stereo partly drawn) [Compound 12] | 70 nM |  | 
